US6514517B2, “Antimicrobial coatings for medical devices” (Ethicon, Inc., priority 2001, dated 2003)

Tested on: Staphylococcus aureus ATCC33591
Assay: Kirby-Bauer type test, coated suture sections on seeded agar plates
Format: cell-based
Procedure: In order to further evaluate the in-vitro potential for pH-lowering coatings, a study was carried out with Staphylococcus aureus ATCC33591. A series of coatings was prepared by dissolving 2.5, 5, 10 and 20 percent (w/w) of L(−)-lactide, respectively, in ethyl acetate. A second series of coatings was prepared by dissolving 2.5, 5, 10 and 20 percent (w/w) of L(−)-lactide in combination with 9 percent (w/w) polyoxaester, respectively, in ethyl acetate.
The polyoxaester coating copolymer used was a poly(ethylene 3,6,9-trioxaundecanedioate-seg-caprolactone-co-glycolide) resin comprised of approximately 17 weight percent polyoxaester prepolymer and a 83 weight percent polymerized mixture of approximately 91 mole percent ε-caprolactone and 9 mole percent glycolide. The polyoxaester is a polycondensation product of 3,6,9-trioxaundecanedioic acid and ethylene glycol made to have hydroxyl functionalities at both ends of each chain. The final resin is made through a ring opening polymerization of the ε-caprolactone and glycolide mixture using the polyoxaester as an α,ω-dihydroxy-macroinitiator. The inherent viscosity of the coating copolymer was 0.55 dL/g as determined in hexafluoroisopropanol (HFIP) at 25° C. at a concentration of 0.1 g/dL.
A third series of coatings was prepared by dissolving 2.5, 5, 10 and 20 percent (w/w) of glycolide, respectively, in ethyl acetate. A fourth series of coatings was prepared by dissolving 2.5, 5, 10 and 20 percent (w/w) of glycolide in combination with 9 percent (w/w) polyoxaester coating copolymer, respectively, in ethyl acetate. Approximately one-inch sections of commercial size 2/0 synthetic absorbable braided [10/90 poly(lactide-co-glycolide)] suture were dipped into the solutions and were dried overnight in a laminar flow hood, thereby providing a coated suture according to the present invention. In a Kirby-Bauer type test, plates were seeded with a 24-hour culture of Staph. aureus. The coated suture sections were placed on agar plates and the plates were incubated at 30-35° C. for 24 hours. […] For sutures coated from solutions comprising 2.5 percent and 5 percent lactide, respectively, zones of inhibition extending approximately 1 mm from the coated suture were observed. […] Utilizing a 20 percent lactide coating solution, the zone of inhibition was greater than 1 mm. All other coatings yielded results approximately the same as those obtained from a 10 percent lactide coating solution.
Referring to FIG. 3, a one inch-section of suture 30 coated with a solution of 20 percent by weight lactide in ethyl acetate was placed on a seeded agar plate and incubated as above. […] Referring to FIG. 2, when a section of untreated suture 20 is placed on a seeded agar plate and incubated as above, microorganisms 22 are present immediate and adjacent to the untreated suture and no zone of inhibition is noted around the suture.

[1] = 2/0 braided 10/90 poly(lactide-co-glycolide) suture coated from 2.5 percent solution in ethyl acetate, 30-35° C., 24 hours
[2] = 2/0 braided 10/90 poly(lactide-co-glycolide) suture coated from 5 percent solution in ethyl acetate, 30-35° C., 24 hours
[3] = 2/0 braided 10/90 poly(lactide-co-glycolide) suture coated from 10 percent solution in ethyl acetate, 30-35° C., 24 hours

| SMILES | zones of inhibition extending from the coated suture [1] | zones of inhibition extending from the coated suture [2] | zones of inhibition extending from the coated suture [3] | zone of inhibition extending from the coated suture (2/0 braided 10/90 poly(lactide-co-glycolide) suture coated from 20 percent solution in ethyl acetate, 30-35° C., 24 hours) | zone of inhibition (FIG. 3, in words) (one inch-section of suture coated with 20 percent by weight solution in ethyl acetate) |
| --- | --- | --- | --- | --- | --- |
| C[C@@H]1OC(=O)[C@H](C)OC1=O [L(−)-lactide] | approximately 1 mm | approximately 1 mm | approximately 1 mm | greater than 1 mm | Zone of inhibition 34 clearly surrounds coated suture 30 |
| O=C1COC(=O)CO1 [glycolide] | less than 1 mm | less than 1 mm | approximately 1 mm |  |  |
